Source: patent US20250090562A1, “METHODS, COMPOSITIONS AND USES RELATED TO THE TREATMENT AND PREVENTION OF LEIGH’S SYNDROME” (Stealth BioTherapeutics Inc., priority 2023, published 2025)

What was measured:
Assay type in all cases: cell-based, human
[1] = test system: Healthy (GM08402) fibroblasts; experiment: Erastin cytoprotection assay, healthy fibroblasts; details: 2 μM erastin, 250 μM FAC, 50 μM AA, 10-1000 nM compound, 24 h
Protocol: (§1) Briefly, Healthy (GM08402) or Leigh (GM03672) fibroblasts were resuspended in assay medium, seeded at 10,000 cells per well in a clear, tissue cultured-treated, 96-well plate, and incubated at 37° C. overnight. Following the incubation, supernatant was manually aspirated from wells, taking care not to disrupt cells. Fibroblasts were co-treated in a final volume of 100 μL with 2 μM erastin (Millipore Corp., Cat #), 250 μM ferric ammonium citrate (FAC), 50 μM ascorbic acid (AA), and a titration of one of each of Compounds 1 to 4 or Vatiquinone ranging from 10 to 1000 nM. Following another 24-hour incubation at 37° C., cell viability was measured using the CellTiter-Glo Luminescent Cell Viability Kit (ProMega) per Manufacturer's instructions. Luminescence units were quantified by GEN5 software on a BioTek SYNERGY neo2 plate reader (LUM filter).
(§2) Briefly, erastin, like RSL3, is known to induce ferroptosis. […] Erastin was incubated with cell fibroblasts for 24 hours to induce ferroptosis. Cells were co-treated with each of Compounds 1 to 4, or Vatiquinone as the test articles. Test articles were administered at a range of concentrations to derive a curve. Cell viability was determined using a commercially available kit that measures ATP production. […] An increase in cell viability as determined by the assay is considered to be protective against ferroptosis.

15-lipoxygenase (15-LO) [2] = experiment: 15(S)-HETE ELISA following RSL3 treatment, healthy fibroblasts; details: 700 nM RSL3, 1 μM compound, 24 h
Protocol: (§3) Samples for the 15(S)-HETE ELISA were generated by the RSL3 cytoprotection assay described above. Healthy or Leigh fibroblasts were resuspended in assay medium, seeded at 200,000 cells per well in a clear, tissue culture-treated, 24-well plate. Cells were incubated at 37° C. for 24 hours. Supernatant was aspirated from each well following the incubation.
(§4) Fibroblasts from both a healthy individual and a patient diagnosed with Leigh syndrome were examined (but not all compounds were examined in each cell type). Activation of ferroptosis has been implicated as a driver of epilepsy, which is commonly associated with Leigh syndrome. […] Kahn-Kirby et al. PLOS One. […] As a key regulator of ferroptosis, 15-LO serves as a rational therapeutic target in Leigh syndrome.

[3] = test system: Leigh syndrome (GM03672) fibroblasts; experiment: RSL3 cytoprotection assay, Leigh fibroblasts; details: 375 nM RSL3, 10-1000 nM compound, 4 h
Protocol: (§5) Patient fibroblasts were acquired from Coriell Institute for Medical Research (Camden, NJ, USA). GM03672 is an untransformed fibroblast cell line from a Leigh syndrome patient carrying an unknown mutation. GM08402 is an untransformed fibroblast from an apparently healthy individual. Cells were cultured at 37° C. at 5% CO2 in Eagle's Minimum Essential Medium (MEM, Corning), which was supplemented with Earle's salts and non-essential amino acids, 15% qualified fetal bovine serum, and 1% penicillin/streptomycin ([…]) to yield “Complete MEM.”
(§6) To initiate the RSL3 cytoprotection experiment, Healthy (GM08402) and Leigh syndrome (GM03672) fibroblasts were resuspended in Complete MEM. Cells were seeded at 10,000 cells per well in a clear, tissue cultured-treated, 96-well plate and incubated at 37° C. overnight. Following the incubation, supernatant was manually aspirated, taking care not to disrupt cells. […]. Luminescence units were quantified by GEN5 software on a BioTek SYNERGY neo2 plate reader (LUM filter).
(§7) RSL3 is an inhibitor of the enzyme glutathione peroxidase 4 (GPX4), which decreases lipid peroxides. RSL3 inhibition of GPX4 induces ferroptosis through iron-dependent accumulation of lipid ROS. In this assay, Healthy or Leigh fibroblasts were treated for 4 hours with RSL3 to induce ferroptosis or left untreated. Endogenous ATP levels were measured as an indicator of cellular viability using a commercially available kit (CellTiter-Glo® 2.0 Cell Viability Assay (Promega)).
(§8) […]. […] Briefly, ferroptosis was induced with 1 μM RSL3 in healthy fibroblast cells and 375 nM RSL3 in fibroblasts from a patient with Leigh syndrome.
(§9) A preliminary experiment was performed to determine the effect of RSL3 injury on the fibroblasts of a healthy individual (cell line: GM08402) and the fibroblasts of a patient diagnosed with Leigh syndrome (cell line: GM03672).

15-lipoxygenase (15-LO) [4] = experiment: 15(S)-HETE ELISA following RSL3 treatment, Leigh fibroblasts; details: 700 nM RSL3, 1 μM compound, 24 h
Protocol: as §3, §4

[5] = test system: Leigh (GM03672) fibroblasts; experiment: Erastin cytoprotection assay, Leigh fibroblasts; details: 2 μM erastin, 250 μM FAC, 50 μM AA, 10-1000 nM compound, 24 h
Protocol: as §1, §2

[6] = test system: Healthy (GM08402) fibroblasts; experiment: RSL3 cytoprotection assay, healthy fibroblasts; details: 1 μM RSL3, 10-1000 nM compound, 4 h
Protocol: as §5, §6, §7, §8, §9

SMILES	relative protective effect against erastin induced ferroptosis (cell viability, ATP) [1]	inhibition of 15-lipoxygenase (15(S)-HETE in supernatant) (15-lipoxygenase (15-LO) [2])	relative 15-LO inhibition (comparison between test articles) (15-lipoxygenase (15-LO) [2])	relative anti-ferroptosis properties (comparison between test articles) [3]	relative 15-LO inhibition (comparison between test articles) (15-lipoxygenase (15-LO) [4])	relative protective effect against erastin induced ferroptosis (cell viability, ATP) [5]	relative anti-ferroptosis properties (comparison between test articles) [6]
CC1=C(C)C(=O)C(CC[C@@](C)(O)COCCC[Si](C)(C)C)=C(C)C1=O [Compound 3]	superior in their protective effect as compared with Vatiquinone or Compounds 1 or 4	inhibited 15-lipoxygenase	superior to Compounds 2, 4 and Vatiquinone	superior to Compounds 1, 4 and Vatiquinone	roughly equivalent protective effect	superior in their protective effect as compared with Vatiquinone or Compounds 1 or 4	superior to Compounds 1, 4 and Vatiquinone
CC1=C(C)C(=O)C(CC[C@@](C)(O)CC/C=C(\C)CCC=C(F)F)=C(C)C1=O [Compound 2]	superior in their protective effect as compared with Vatiquinone or Compounds 1 or 4	inhibited 15-lipoxygenase	roughly equivalent protective effect	superior to Compounds 1, 4 and Vatiquinone	roughly equivalent protective effect	superior in their protective effect as compared with Vatiquinone or Compounds 1 or 4	superior to Compounds 1, 4 and Vatiquinone
CC1=C(C)C(=O)C(CC[C@](C)(O)CCCCCCCCC(F)(F)F)=C(C)C1=O [Compound 4]	about equally protective	inhibited 15-lipoxygenase	roughly equivalent protective effect	roughly equivalent in their anti-ferroptosis properties	roughly equivalent protective effect	about equally protective	roughly equivalent in their anti-ferroptosis properties
